In US20230391714A1, “INHIBITORS OF THE INTERACTION BETWEEN TRIP8B AND HCN CHANNELS AND USES THEREOF FOR TREATING NEUROLOGICAL DISEASES AND DISORDERS” (Northwestern University, priority 2022, published 2023):
Where two headings read alike, the source gives them in different places.

Legend:
[1] = Thermodynamic solubility in PBS; type: physicochemical; details: PBS at pH 7.4, room temperature, stirring for 16 hours; for solubility thermodynamic at 16 h: aqueous buffer, thermodynamic from solid
Excerpt: (§1) Solubility and Mouse Microsomal Stability. […] In order to improve the aqueous solubility to support additional biochemical assays we made and characterized several salt forms. The formic acid (FA) salt was recovered after reverse-phase preparative HPLC while using formic acid as a modifier. […] On stirring the free amine in 4M HCl in dioxane, the compound was converted to the HCl salt as a white solid (Scheme 1). […] As a result, the HCl-salt of NUCC-0200590 was used for biophysical assays. The inhibitor was also screened for in vitro stability towards mouse liver microsomes to evaluate its potential metabolism and suitability for future in vivo experiments. The microsomal stability was measured after a 60-minute incubation at 37° C. with mouse liver microsomes. The compound was almost completely consumed by mouse liver microsomes after a 60-minute incubation as only 3.7% of the parent compound remained.

[2] = DMSO needed in PBS to see proton signals in 1H-NMR (aqueous solubility); type: physicochemical; details: PBS (pH 7.4)
Excerpt: as §1

TRIP8b and HCN1 = TRIP8b and HCN1 (Homo sapiens (Human), UniProt Q8IYB4); assay: NanoBiT live cell protein-protein interaction assay; type: cell-based; details: HEK293T cells, 30 min incubation
TRIP8b and HCN1, sequence (Q8IYB4 other isoform, or with tags, fused parts or gaps, species assumed): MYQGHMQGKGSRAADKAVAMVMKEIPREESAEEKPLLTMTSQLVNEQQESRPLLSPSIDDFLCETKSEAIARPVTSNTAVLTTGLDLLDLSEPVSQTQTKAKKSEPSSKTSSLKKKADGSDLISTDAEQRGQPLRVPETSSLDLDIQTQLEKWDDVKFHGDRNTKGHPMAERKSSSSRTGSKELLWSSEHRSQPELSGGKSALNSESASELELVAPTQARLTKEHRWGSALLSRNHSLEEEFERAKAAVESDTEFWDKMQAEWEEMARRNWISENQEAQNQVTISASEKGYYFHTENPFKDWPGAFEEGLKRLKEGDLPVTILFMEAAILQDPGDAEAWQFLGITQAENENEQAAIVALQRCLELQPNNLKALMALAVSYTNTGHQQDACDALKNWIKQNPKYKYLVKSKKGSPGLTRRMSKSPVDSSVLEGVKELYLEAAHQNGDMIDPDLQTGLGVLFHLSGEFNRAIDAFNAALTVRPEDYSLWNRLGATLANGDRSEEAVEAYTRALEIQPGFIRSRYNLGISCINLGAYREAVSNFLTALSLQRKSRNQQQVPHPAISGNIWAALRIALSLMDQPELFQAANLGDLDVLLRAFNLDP
Description: NanoBiT live cell protein-protein interaction assay. HEK293T cells (obtained freshly from ATCC) were plated in DMEM (Thermo Fisher, #11965-092) with 10% FBS (Thermo Fisher, #16000-044) and Pen/Strep (Thermo Fisher #15140-122) at 1 million cells per well in 6-well tissue culture treated plates. The next day, cells were co-transfected using Lipofectamine 3000 with plasmids encoding the small Nanoluciferase fragment (SmBiT) fused to the N-terminus of full-length HCN1 (SmBiT-HCN1), and the large Nanoluciferase fragment (LgBiT) fused to the N-terminus of TRIP8b(1a-4) (LgBiT-TRIP8b). The plasmids were constructed by cloning into backbone vectors from the Promega NanoBiT MCS cloning kit #N2014. As a control for specific inhibition, other cells were co-transfected with SmBiT-PRKACA and LgBiT-PRKAR2A positive control plasmids from the kit. 24 hours post-transfection, the cells were trypsinized with TrypLE (Thermo Fisher, #12604-013), washed and suspended in phenol red-free Opti-MEM I (Thermo Fisher, #11058-021), and 25,000 cells per well were plated in white 384-well tissue culture-treated plates (Greiner #781080). […] Luminescence was generated by adding Nano-Glo live cell substrate (Promega, #N2011) and incubating for 30 minutes at 37° C. prior to detecting on a luminescent reader (Biotek Neo2).

[3] = system: HCN channels in CA1 pyramidal neurons; assay: Slice electrophysiology in CA1 pyramidal neurons; type: cell-based, mice; details: 15 μM
Description: Slice Electrophysiology. Whole cell recordings from CA1 pyramidal neurons were performed using an electrophysiology rig described previously (Zhou et al., 2013; 2015). 300 micron sagittal sections were made from male and female mice with 5 μM CGP52432, 2 μM SR-95531, and 10 μM MK-801 to block GABAB, GABAA, and NMDAR. ACSF was composed of 125 mM NaCl, 2.5 mM KCl, 25 mM NaHCO3, 1.25 mM Na2PO4, 1 mM MgCl2, 2 mM CaCl2), and 25 mM glucose while the internal solution was 115 mM K-gluconate, 20 mM KCl, 10 mM Na2Phosphocreatinine, 2 mM MgATP, and 0.3 mM NaGTP. NUCC-0200590 was incubated in the slice chamber in a subset of experiments as described in the text. Current clamp recordings were performed at a holding potential of −70 mV.

TRIP8b-HCN1c40 = TRIP8b-HCN1c40 (Homo sapiens (Human), UniProt Q8IYB4); assay: TRIP8b-HCN1c40 AlphaScreen assay; type: binding
TRIP8b-HCN1c40, sequence (Q8IYB4 265-626): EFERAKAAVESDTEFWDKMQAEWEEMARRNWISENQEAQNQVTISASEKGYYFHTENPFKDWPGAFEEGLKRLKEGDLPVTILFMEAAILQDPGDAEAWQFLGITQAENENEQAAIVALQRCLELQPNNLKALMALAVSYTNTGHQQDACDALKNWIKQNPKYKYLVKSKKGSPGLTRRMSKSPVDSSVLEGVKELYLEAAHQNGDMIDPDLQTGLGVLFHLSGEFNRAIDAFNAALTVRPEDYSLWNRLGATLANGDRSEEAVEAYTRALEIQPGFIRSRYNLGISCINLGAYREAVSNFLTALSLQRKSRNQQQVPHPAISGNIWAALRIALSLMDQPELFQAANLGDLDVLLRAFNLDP
Description: AlphaScreen Assay. 20 nM ofGST-tagged HCNlc40 protein (corresponding to the C terminal 40 amino acids of HCN1) was incubated with 200 nM of His-tagged TRIP8b(241-602) and varying concentrations of the test compound as described in our prior report (Han et al., 2015). After a 3 h incubation, anti-GST AlphaScreen acceptor beads were added for 1.5 h followed by AlphaScreen nickel chelate donor beads for 1.5 h. AlphaScreen signal was quantified using a PerkinElmer (Waltham, MA) EnSpire multimode plate reader.

[4] = Mouse liver microsomal stability; type: in vitro ADME; details: 60-minute incubation at 37° C. with mouse liver microsomes
Excerpt: as §1

HEK293T cells = assay: Cell viability assay (alamar Blue); type: cell-based; details: 0-50 μM, 24 hours
Description: Cell Viability Assays. HEK293T Cells (ATCC, Manassas, Virginia) were maintained as previously described (Lyman et al., 2017b). These cells were plated at 30-50% confluence and incubated for 24 hours with the concentration of NUCC-0200590 specified in the main text. The cells were then incubated with alamar Blue assay reagent per the Manufacturer's instructions (ThermoFisher, Rockford, IL) prior to reading the plates on a plate reader.

[5] = activity ranges, read-out: TRIP8b-HCN1c40 Alphascreen IC50 activity
[6] = read-out: TRIP8b-HCN1c40 Alphascreen IC50

| SMILES | IC50 (TRIP8b-HCN1c40; [5]) [nM] | IC50 (TRIP8b-HCN1c40; [6]) [nM] | other results |
| --- | --- | --- | --- |
| CN1CCN(Cc2cc(-c3ccc(F)cc3)ccc2OCC(=O)NCc2ccc(Cl)cc2)CC1.O=CO [NUCC-0200590 FA salt, N-(4-chlorobenzyl)-2-((4′-fluoro-3-((4-methylpiperazin-1-yl)methyl)-[1,1′-biphenyl]-4-yl)oxy)acetamide formate] | – | – | solubility thermodynamic at 16 h [1]: 45 µM; DMSO in PBS required to see proton signals in 1H-NMR [2]: 15% |
| CN1CCN(Cc2cc(-c3ccc(F)cc3)ccc2OCC(=O)NCc2ccc(Cl)cc2)CC1.Cl [NUCC-0200590 HCl salt, N-(4-chlorobenzyl)-2-((4′-fluoro-3-((4-methylpiperazin-1-yl)methyl)-[1,1′-biphenyl]-4-yl)oxy)acetamide hydrochloride] | – | – | solubility thermodynamic at 16 h [1]: 252 µM; disruption of TRIP8b-HCN1 interaction (NanoBiT luminescence) (TRIP8b and HCN1): disrupts the interaction between fragments of TRIP8b and HCN1 in live cells |
| CN1CCN(Cc2cc(-c3ccc(F)cc3)ccc2OCC(=O)NCc2ccc(Cl)cc2)CC1 [NUCC-0200590, N-(4-chlorobenzyl)-2-((4′-fluoro-3-((4-methylpiperazin-1-yl)methyl)-[1,1′-biphenyl]-4-yl)oxy)acetamide] | 5000 to 10000 | 5400 | sag ratio ([3]; Trip8b+/+ mice): 1.14±0.01; sag ratio ([3]; Trip8b−/− mice): 1.05±0.02; thermodynamic solubility [1]: completely insoluble; IC50 (TRIP8b-HCN1c40; most potent hit compound of in silico screen, read-out: IC50 value in the AlphaScreen assay): 19900 ± 900 nM; parent compound remained [4]: 3.7%; viability as percentage of 0 μM control (HEK293T cells): main effect of concentration |
| CN1CCN(Cc2cc(-c3ccc(N)cc3)ccc2OCC(=O)NCc2ccc(Cl)cc2)CC1 [NUCC-0202053] | 10000 to 20000 | 18000 | – |

Second part, led by results:

| IC50 (TRIP8b-HCN1c40; [5]) [nM] | IC50 (TRIP8b-HCN1c40; [6]) [nM] | SMILES | other results |
| --- | --- | --- | --- |
| < 1000 | 840 | Cc1ccc([C@@H](C)NC(=O)C(C)Oc2ccc(-c3ccc(Cl)cc3)cc2CN2CCN(C)CC2)cc1 (some centres unmarked) [NUCC-0202046] | – |
| < 1000 | < 740 | Cc1ccc([C@@H](C)NC(=O)C(C)Oc2ccc(-c3ccc(Cl)c(Cl)c3)cc2CN2CCN(C)CC2)cc1 (some centres unmarked) [NUCC-0202047] | – |
| 1000 to 2000 | 1900 | Cc1ccc(-c2ccc(OC(C)C(=O)N[C@H](C)c3ccc(C)cc3)c(CN3CCN(C)CC3)c2)cc1 (some centres unmarked) [NUCC-0202048] | – |
| < 1000 | < 740 | Cc1ccc([C@@H](C)NC(=O)C(C)Oc2ccc(-c3cc(Cl)cc(Cl)c3)cc2CN2CCN(C)CC2)cc1 (some centres unmarked) [NUCC-0202049] | – |
| < 1000 | < 740 | Cc1ccc(C(C)NC(=O)C(C)Oc2ccc(-c3cc(Cl)cc(-c4cc(Cl)cc(Cl)c4)c3)cc2CN2CCN(C)CC2)cc1 (centres unmarked) [NUCC-0202050] | – |
| < 1000 | < 740 | CN1CCN(Cc2cc(-c3ccc(Cl)cc3Cl)ccc2OCC(=O)NCc2ccc(Cl)cc2)CC1 [NUCC-0202054] | – |
